The values below come from patent US20240116892A1, “HETEROCYCLIC AMIDE AND UREA COMPOUNDS AS JAK2 INHIBITORS” (Ajax Therapeutics, Inc., priority 2022, published 2024).

Each structure is given as a SMILES string.

In the assay the target is JAK2 (JH1 domain-catalytic, Y1007F, Y1008F) kinase (Homo sapiens (Human), UniProt O60674, Y1007F/Y1008F). Kind of assay: JAK2 JH1 Domain Binding Assay. As to conditions: qPCR readout. In short, it runs like this: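 JH1 catalytic domain (Y1007F/Y1008F) expressed as NFkB DNA-binding-domain fusion in HEK293 cells, DNA-tagged. Competition with immobilized biotinylated ligand on streptavidin beads, 1 h at RT in PBS/Tween/BSA/DTT; bound kinase eluted with free ligand and quantified by qPCR.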
Chain of JAK2 (JH1 domain-catalytic, Y1007F, Y1008F) kinase (O60674 849-1124 Y1007F/Y1008F): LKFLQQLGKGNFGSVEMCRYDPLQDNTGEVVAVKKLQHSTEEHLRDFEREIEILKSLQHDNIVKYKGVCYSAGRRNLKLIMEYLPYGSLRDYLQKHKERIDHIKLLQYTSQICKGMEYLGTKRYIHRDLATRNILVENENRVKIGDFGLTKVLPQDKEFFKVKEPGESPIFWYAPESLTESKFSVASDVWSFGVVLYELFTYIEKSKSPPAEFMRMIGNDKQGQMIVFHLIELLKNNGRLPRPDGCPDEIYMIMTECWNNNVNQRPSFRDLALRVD
In general terms: Real-time PCR tracks product formation cycle by cycle.
In the case of `CN(C(=O)Nc1cc(C(F)(F)F)cn(C)c1=O)[C@@H]1CC=C(c2cnc3[nH]cc(N4CCOCC4)c3n2)CC1.CN(C(=O)Nc1cc(C(F)(F)F)cn(C)c1=O)[C@H]1CC=C(c2cnc3[nH]cc(N4CCOCC4)c3n2)CC1` (mixture of isomers) [Example I-165-a, (S)-1-methyl-3-(1-methyl-2-oxo-5-(trifluoromethyl)-1,2-dihydropyridin-3-yl)-1-(4-(7-morpholino-5H-pyrrolo[2,3-b]pyrazin-2-yl)cyclohex-3-en-1-yl)urea and (R)-1-methyl-3-(1-methyl-2-oxo-5-(trifluoromethyl)-1,2-dihydropyridin-3-yl)-1-(4-(7-morpholino-5H-pyrrolo[2,3-b]pyrazin-2-yl)cyclohex-3-en-1-yl)urea], the Kd was below 10 nM.

For `Cc1c[nH]c2ncc(N3CCC(N(C)C(=O)Nc4cc(C(F)(F)F)cn(C)c4=O)CC3)nc12` [Example I-30, 1-methyl-3-(1-methyl-2-oxo-5-(trifluoromethyl)-1,2-dihydropyridin-3-yl)-1-(1-(7-methyl-5H-pyrrolo[2,3-b]pyrazin-2-yl)piperidin-4-yl)urea], the Kd was below 10 nM.

`CC(=O)Nc1cnc(N2CCC(CC(=O)Nc3cc(C)cc(C(F)(F)F)c3)CC2)cn1` [Example I-2, 2-(1-(5-acetamidopyrazin-2-yl)piperidin-4-yl)-N-(3-methyl-5-(trifluoromethyl)phenyl)acetamide]: the Kd lay within 50 to 1000 nM.

The compound `CN(C(=O)Nc1cc(C(F)(F)F)cn(C)c1=O)[C@@H]1CCN(c2cnc3[nH]n(C)c(=O)c3c2)C[C@@H]1F` [Example I-89-a, 1-((3S,4R)-3-fluoro-1-(2-methyl-3-oxo-2,3-dihydro-1H-pyrazolo[3,4-b]pyridin-5-yl)piperidin-4-yl)-1-methyl-3-(1-methyl-2-oxo-5-(trifluoromethyl)-1,2-dihydropyridin-3-yl)urea] showed a Kd of 10 to 50 nM.

In turn, `Cn1cc(C(F)(F)F)cc(NC(=O)N2CCO[C@H]3CN(c4cnc5[nH]ccc5n4)CC[C@@H]32)c1=O` [Example I-128-a, (4aS,8aS)-N-(1-methyl-2-oxo-5-(trifluoromethyl)-1,2-dihydropyridin-3-yl)-6-(5H-pyrrolo[2,3-b]pyrazin-2-yl)octahydro-1H-pyrido[3,4-b][1,4]oxazine-1-carboxamide] had a Kd of 10 to 50 nM.

Consider `CN1CCN(c2n[nH]c3ncc(N4CC[C@@H](N(C)C(=O)Nc5cc(C(F)(F)F)cn(C)c5=O)C(F)(F)C4)cc23)CC1` (single isomer, unassigned) [Example I-154-a, (R)- or (S)-1-(3,3-difluoro-1-(3-(4-methylpiperazin-1-yl)-1H-pyrazolo[3,4-b]pyridin-5-yl)piperidin-4-yl)-1-methyl-3-(1-methyl-2-oxo-5-(trifluoromethyl)-1,2-dihydropyridin-3-yl)urea], for which the Kd was below 10 nM.

`CN(C(=O)Nc1cc(C(F)(F)F)cn(C)c1=O)[C@H]1CCN(c2cnc3[nH]ncc3n2)C[C@H]1F` [Example I-83-a, 1-((3R,4S)-3-fluoro-1-(1H-pyrazolo[3,4-b]pyrazin-5-yl)piperidin-4-yl)-1-methyl-3-(1-methyl-2-oxo-5-(trifluoromethyl)-1,2-dihydropyridin-3-yl)urea] had a Kd below 10 nM.

With `CC(=O)Nc1cnc(N2CC[C@H](N(C)C(=O)Nc3cc(C(F)(F)F)cn(C)c3=O)C(F)(F)C2)cn1` (single isomer, unassigned) [Example I-35-b], the Kd was below 10 nM.

`CN(C(=O)Nc1cc(C(F)(F)F)cn(C)c1=O)[C@H]1CCN(c2cnc3[nH]nc(OC4CCOCC4)c3c2)C[C@H]1F` [Example I-107-b, 1-((3R,4S)-3-fluoro-1-(3-((tetrahydro-2H-pyran-4-yl)oxy)-1H-pyrazolo[3,4-b]pyridin-5-yl)piperidin-4-yl)-1-methyl-3-(1-methyl-2-oxo-5-(trifluoromethyl)-1,2-dihydropyridin-3-yl)urea] gave a dissociation constant (Kd) below 10 nM.

`CN(C(=O)Nc1cc(C(F)(F)F)cn(C)c1=O)C1CCN(c2cnc3cn[nH]c3c2)CC1` [Example I-73, 1-(1-(1H-pyrazolo[4,3-b]pyridin-6-yl)piperidin-4-yl)-1-methyl-3-(1-methyl-2-oxo-5-(trifluoromethyl)-1,2-dihydropyridin-3-yl)urea] returned a Kd below 10 nM.

In the case of `CN(C(=O)Nc1cc(C(F)(F)F)cn(C)c1=O)[C@@H]1CCN(c2cnc3[nH]n(C)c(=O)c3c2)CC1(F)F` [Example I-96-a, (R)-1-(3,3-difluoro-1-(2-methyl-3-oxo-2,3-dihydro-1H-pyrazolo[3,4-b]pyridin-5-yl)piperidin-4-yl)-1-methyl-3-(1-methyl-2-oxo-5-(trifluoromethyl)-1,2-dihydropyridin-3-yl)urea], the Kd was in the range of 10 to 50 nM.

As to `COc1n[nH]c2ncc(N3CC[C@H](N(C)C(=O)Nc4cc(C(F)(F)F)cn(C)c4=O)[C@@H](OC)C3)cc12` [Example I-108-b, 1-((3S,4S)-3-methoxy-1-(3-methoxy-1H-pyrazolo[3,4-b]pyridin-5-yl)piperidin-4-yl)-1-methyl-3-(1-methyl-2-oxo-5-(trifluoromethyl)-1,2-dihydropyridin-3-yl)urea], the Kd is 10 to 50 nM.

Compound `CN(C(=O)Nc1cc(C(F)(F)F)cn(C)c1=O)C1CCN(c2cnc3[nH]cc(N4CCOCC4)c3n2)CC1` [Example I-124, 1-methyl-3-(1-methyl-2-oxo-5-(trifluoromethyl)-1,2-dihydropyridin-3-yl)-1-(1-(7-morpholino-5H-pyrrolo[2,3-b]pyrazin-2-yl)piperidin-4-yl)urea] had a Kd below 10 nM.

Compound `CN(C(=O)Nc1cc(C(F)(F)F)cn(C)c1=O)[C@H]1CCN(c2cnc3[nH]ccc3n2)CC1(F)F` (single isomer, unassigned) [Example I-27-b] came in with a Kd below 10 nM.

In turn, `COc1c[nH]c2ncc([C@H]3CC[C@H](N(C)C(=O)Nc4cc(C(F)(F)F)cn(C)c4=O)CC3)nc12` [Example I-170, trans-1-(4-(7-methoxy-5H-pyrrolo[2,3-b]pyrazin-2-yl)cyclohexyl)-1-methyl-3-(1-methyl-2-oxo-5-(trifluoromethyl)-1,2-dihydropyridin-3-yl)urea] had a Kd below 10 nM.

`CN(C(=O)Nc1cc(C(F)(F)F)cn(C)c1=O)C1CCCN(c2cnc3[nH]ccc3n2)CC1` (single isomer, unassigned) [Example I-41-b, (S)- or (R)-1-(1-(5H-pyrrolo[2,3-b]pyrazin-2-yl)azepan-4-yl)-1-methyl-3-(1-methyl-2-oxo-5-(trifluoromethyl)-1,2-dihydropyridin-3-yl)urea]: the Kd fell in the range of 50 to 1000 nM.

Turning to `CN(C(=O)Nc1cc(C(F)(F)F)cn(C)c1=O)[C@H]1CCN(c2cnc3[nH]ccc3n2)C[C@@H]1F` (single isomer, unassigned) [Example I-63-b], the Kd was below 10 nM.

Consider `CO[C@@H]1CN(c2cnc3[nH]nc(N(C)C)c3c2)CC[C@H]1N(C)C(=O)Nc1cc(C(F)(F)F)cn(C)c1=O` [Example I-115-a, 1-((3R,4R)-1-(3-(dimethylamino)-1/-pyrazolo[3,4-b]pyridin-5-yl)-3-methoxypiperidin-4-yl)-1-methyl-3-(1-methyl-2-oxo-5-(trifluoromethyl)-1,2-dihydropyridin-3-yl)urea], for which the Kd is 10 to 50 nM.

In general, Kd refers to the concentration at which binding is half-saturated. A high value points to lower affinity.
